# Literature values in paper PMC8886800 (Journal of the American Chemical Society, 2021).
# Key:
# [1] = tested on: angiogenesis
# [2] = tested on: VEGFR
substance,measurement,setting,value
Ac-KLTWMELY QLAYKGI [MA],effect on angiogenesis (reported),[1],capable of inhibiting angiogenesis
same,binding to VEGF receptors (reported),[2],demonstrated binding to VEGF receptors
